The values below come from ChEMBL document CHEMBL4732153, “Phenyl 4-(2-oxopyrrolidin-1-yl)benzenesulfonates and phenyl 4-(2-oxopyrrolidin-1-yl)benzenesulfonamides as new antimicrotubule agents targeting the colchicine-binding site” (Eur J Med Chem, 2021).

Structures are written as SMILES. Activity calls are given as the source filed them. The rule behind the calls is not given here.

Data set [1] has as its target T1, Tubulin (Homo sapiens) (UniProt P68371+Q9H4B7+P0DPH7+P68366+Q13509+Q71U36+P04350+Q3ZCM7+P07437+P68363+Q9BQE3+Q6PEY2+Q13885+Q9BVA1+Q9BUF5). The data set is described as follows: Disruption of microtubule polymerization in human M21 cells assessed as induction of mitotic abnormalities at 5 times IC50 measured after 24 hrs by DAPI staining based immunofluorescence microscopic analysis. It is filed as cell-based.

For data set [2], the species on record is Sus scrofa. In words: Inhibition of porcine brain tubulin polymerization at 30 uM measured after 60 mins by fluorescence assay.
A short description of data set [3]: Solubility of compound in DMSO at 30 uM. It is filed as physicochemical.
The target in data set [4] is Tubulin beta (Homo sapiens) (UniProt P68371+Q9H4B7+Q13509+P04350+Q3ZCM7+P07437+Q13885+Q9BVA1+Q9BUF5+A6NNZ2). The data set is described as follows: Inhibition of EBI binding to colchicine-binding site of beta-tubulin in human M21 cells at 100 to 1000 times IC50 preincubated for 2 hrs followed by EBI addition and measured after 1.5 hrs by Western blot analysis. It is filed as cell-based. The settings on record: time 3.5 hrs.

Data set [5] is described as follows: Toxicity in chick embryo assessed as death at 20 ug, iv incubated for 7 days relative to control. It is filed as organism-based. The settings on record: in vivo, at 20 µg, time 7 day, read-out: Activity.
Data set [6] deals with M21. The data set is described as follows: Cell cycle arrest in human M21 cells assessed as accumulation at G0/G1 phase at 2 to 5 times IC50 measured after 24 hrs by DAPI staining based flow cytometry (reference value: 65.5%). It is filed as functional. (In flow cytometry, cells or beads pass a laser one at a time.)
In data set [7] the test system is M21. The data set is described as follows: Cell cycle arrest in human M21 cells assessed as accumulation at S phase at 2 to 5 times IC50 measured after 24 hrs by DAPI staining based flow cytometry (reference value: 16.1%). It is filed as functional.
Data set [8] concerns the target T1, Tubulin (Homo sapiens). In words: Disruption of microtubule polymerization in human M21 cells at 5 times IC50 measured after 24 hrs by DAPI staining based immunofluorescence microscopic analysis. It is filed as cell-based.
The subject of data set [9] is HT-29. The data set is described as follows: Antiproliferative activity against human HT-29 cells assessed as reduction in cell viability measured after 48 hrs by sulforhodamine B assay. The settings on record: HT-29, 48 h. It is filed as functional, cell-based. A general note: The SRB assay estimates cell density from bound dye.
Data set [10] deals with HT-1080. In words: Antiproliferative activity against human HT-1080 cells assessed as reduction in cell viability measured after 48 hrs by sulforhodamine B assay. It is filed as functional, cell-based. The settings on record: HT-1080, 48 h.
Data set [11] deals with M21. In words: Cell cycle arrest in human M21 cells assessed as accumulation at G2/M phase at 2 to 5 times IC50 measured after 24 hrs by DAPI staining based flow cytometry (reference value: 13.4%). It is filed as functional.
Data set [12] relates to M21. In words: Cell cycle arrest in human M21 cells assessed as accumulation at SubG1 phase at 2 to 5 times IC50 measured after 24 hrs by DAPI staining based flow cytometry (reference value: 5%). It is filed as functional.
In data set [13] the test system is MCF7. The data set is described as follows: Antiproliferative activity against human MCF7 cells assessed as reduction in cell viability measured after 48 hrs by sulforhodamine B assay. It is filed as functional, cell-based. The following applies: MCF7, 48 h.
Data set [14] deals with M21. The data set is described as follows: Antiproliferative activity against human M21 cells assessed as reduction in cell viability measured after 48 hrs by sulforhodamine B assay. It is filed as functional, cell-based. The following applies: M21, 48 h.
The species named for data set [15] is Sus scrofa. In words: Inhibition of porcine brain tubulin polymerization at 15 uM measured after 60 mins by fluorescence assay.
The subject of data set [16] is M21. The data set is described as follows: Cell cycle arrest in human M21 cells assessed as accumulation at S phase at 11 nM measured after 24 hrs by DAPI staining based flow cytometry (reference value: 16.1%). It is filed as functional.
Data set [17] deals with M21. In words: Cell cycle arrest in human M21 cells assessed as accumulation at G0/G1 phase at 11 nM measured after 24 hrs by DAPI staining based flow cytometry (reference value: 65.5%). It is filed as functional.
The test system of data set [18] is M21. In words: Cell cycle arrest in human M21 cells assessed as accumulation at G2/M phase at 11 nM measured after 24 hrs by DAPI staining based flow cytometry (reference value: 13.4%). It is filed as functional.
In data set [19] the test system is M21. In words: Cell cycle arrest in human M21 cells assessed as accumulation at SubG1 phase at 11 nM measured after 24 hrs by DAPI staining based flow cytometry (reference value: 5%). It is filed as functional.
Data set [20] in a line: Solubility of compound in DMSO at 15 uM. It is filed as physicochemical.
A short description of data set [21]: Toxicity in chick embryo assessed as death at 1 ug, iv incubated for 7 days relative to control. It is filed as organism-based. The settings on record: in vivo, at 1 µg, time 7 day, read-out: Activity.

By IC50 is commonly meant the concentration at which inhibition is half-maximal. Take `COc1cc(OC)cc(OS(=O)(=O)c2ccc(N3CCCC3=O)cc2)c1`: the outcome in [1] and in data set [8] was Active. Besides, the inhibition result in [2] was “Active”. Further, the solubility result in data set [3] is “Soluble”. Moreover, the “Inhibition of EBI binding (active/inactive)” value (“Inhibition … (active/inactive)” below) in data set [4] is “Active”. Besides, in [5], the mortality at 168 h was found to be 18%. The Activity in data set [6] came out at 32.7%; in data set [7], 9.6%; in [11], 45.6%; in data set [12], 12.1%. The IC50 in data set [9] came out at 39 nM; in [10] it was 26 nM; in [13], 21 nM; in data set [14], 12 nM.
Regarding `COc1ccc(/C=C\c2cc(OC)c(OC)c(OC)c2)cc1O` [COMBRETASTATIN A4], the inhibition result in data set [15] was “Active”. Besides, the Activity was found to be 7.2% in [16], 9.2% in data set [17], 79.5% in data set [18] and 4.1% in data set [19]. Besides, the “Inhibition … (active/inactive)” value in [4] was “Active”. The IC50 in data set [9] turned out to be 5.1 nM; in [10] it was 2.2 nM; in data set [13], 1.9 nM; in data set [14], 2.2 nM.
For the compound `COc1cc(NS(=O)(=O)c2ccc(N3CCCC3=O)cc2)cc(OC)c1OC`, the inhibition result in data set [15] is “Active”. The result in [1] and in data set [8] was Active. Moreover, the solubility result in data set [20] is recorded as “Soluble”. In addition, the “Inhibition … (active/inactive)” value in [4] was “Active”. Moreover, in [21], the mortality at 168 h stood at 8%. Besides, the Activity in data set [6] came out at 8.2%; in data set [7], 7.5%; in data set [11] it was 80.4%; in data set [12] it was 3.9%. For the same compound, the IC50 was determined as 80 nM in data set [9], 130 nM in data set [10], 88 nM in [13] and 56 nM in data set [14].
